# According to publication PMC5405074, “Receptor-Mediated Melanoma Targeting with Radiolabeled α-Melanocyte-Stimulating Hormone: Relevance of the Net Charge of the Ligand” (Frontiers in Endocrinology, 2017):
# Marks after values point to notes of the source that are not given here. Non-standard residues stand in square brackets, D forms with d. Residues, ends and D or L forms follow the SMILES beside them. *: point of attachment. DOTA = O=C(O)CN1CCN(CC(=O)O)CCN(CC(=O)*)CCN(CC(=O)O)CC1; Nle = CCCC[C@H](N)C(=O)O
# Tested on: B16-F1 cells
# Test: In situ melanin assay in B16-F1 cells
# Type: cell-based, mouse
# Settings: for Reduction of biological activity compared to DOTA-NAP-amide: melanin assay
# Protocol: The biological activity of the α-MSH derivatives was assessed with an in situ melanin assay ([40]). Briefly, B16-F1 cells (2,500 cells per well in 100 µL) were distributed into 96-well flat-bottom cell culture plates. MEM without phenol red, supplemented with 10% heat-inactivated fetal calf serum, 2 mM L-glutamine, 0.31 mmol/L L-tyrosine, 1% non-essential amino acids, 1% vitamin solution, 50 IU/mL penicillin, and 50 µg/mL streptomycin, was used as culture medium. After overnight incubation at cell culture conditions mentioned above, concentrations of α-MSH derivatives ranging from 1 × 10^−8 to 1 × 10^−12 in 100-µL volumes were added (in threefold dilution steps), and the incubation was continued for an additional 72 h. Melanin production was quantified by determining the absorbance at 310 nm in a microplate reader.
smiles,measurement,setting,value
"CCCC[C@H](NC(C)=O)C(=O)N[C@@H](CC(=O)O)C(=O)N[C@@H](Cc1c[nH]cn1)C(=O)N[C@H](Cc1ccccc1)C(=O)N[C@@H](CCCNC(=N)N)C(=O)N[C@@H](Cc1c[nH]c2ccccc12)C(=O)NCC(=O)N[C@@H](CCCCNC(=O)CN1CCN(CC(=O)O)CCN(CC(=O)O)CCN(CC(=O)O)CC1)C(=O)N[C@H](CC(=O)O)C(=O)N[C@H](CC(=O)O)C(=O)O [DOTA-NAP-D-Asp-D-Asp, Ac-Nle-Asp-His-D-Phe-Arg-Trp-Gly-Lys(DOTA)-D-Asp-D-Asp-OH] (Ac-[Nle]DH[dF]RWGK(DOTA)[dD][dD]-OH)",Reduction of biological activity compared to DOTA-NAP-amide,,> 10 fold
same,Reduction of biological activity compared to DOTA-NAP-amide,listed as DOTA-NAP by D-Asp-D-Asp,around 11 fold
same,Biological activity rEC50 [α-MSH = 1],"relative concentration vs. α-MSH (=1) inducing half-maximal melanin production by B16-F1 cells, 72 h, absorbance 310 nm, n = 3–13, ^c = P < 0.05 vs. DOTA-NAP-amide",7.66 ± 0.33^c
